What was measured:
southern armyworm [1] = assay: Foliar application, southern armyworm; type: in vivo; settings: Spodoptera eridania, SAW, foliar, 48 hours, read-out: Foliar % Kill (ppm)
Experimental: (§1) Foliar Application: The activity of some of the compounds of the invention against various test species selected from pea aphid (Acyrthosiphon pisum), twospotted spider mite (Tetranychus urticae), southern armyworm (Spodoptera eridania), Mexican bean beetle (Epilachna varivestis), and cabbage looper (Tricoplusia ni) was determined by foliar application of the test compound. The test materials were formulated as aqueous solutions containing 10% acetone and 0.25% acetylphenoxypolyethoxyethanol. Activity against pea aphid was determined on English fava bean plants the leaves of which were sprayed to runoff with various concentrations of test solution prior to infestation with adult aphids. Activity against twospotted spider mite was evaluated on pinto bean plants whose leaves were sprayed to runoff with various concentrations of test solution after infestation with adult mites. Activity against the remaining species was evaluated on pinto bean plants whose leaves were sprayed to runoff with various concentrations of test solution before infestation with the appropriate immature insects. Mortality was read approximately 48 hours after treatment.

milkweed bug [2] = assay: Topical application, milkweed bug; type: in vivo, Oncopeltus fasciatus; settings: MWB; for Topical % Kill @ 5000 ng/insect: 24 hours
Experimental: (§2) Topical Application: The compounds of this invention were tested for insecticidal activity against various insect species selected from southern armyworm (Spodoptera eridania), Mexican bean beetle, (Epilachna varivestis), milkweed bug (Oncopeltus fasciatus), and cabbage looper (Tricoplusia ni) by applying to the second or third dorsal thoracic segment of each larvae a one microliter droplet containing 5 mg/mL of test compound in acetone (5000 ng/insect). The test was allowed to stand 24 hours after application and was then read to determine the percent kill.
(§3) To determine the LD50 of the compounds, the topical application test was repeated by applying various amounts of toxicant. Also included among the species tested against for this determination were tobacco budworm (Heliothis virescens), beet armyworm (Spodoptera exigua), and boll weevil (Anthonomus grandis).

cabbage looper [3] = assay: Foliar application, cabbage looper; type: in vivo, Tricoplusia ni; settings: Trichoplusia ni, CL, 48 hours, read-out: Foliar % Kill (ppm)
Experimental: as §1

cabbage looper [4] = assay: Topical application, cabbage looper; type: in vivo, Tricoplusia ni; settings: CL
Experimental: as §2, §3

Mexican bean beetle [5] = assay: Foliar application, Mexican bean beetle; type: in vivo; settings: Epilachna varivestis, MBB, foliar, 48 hours, read-out: Foliar % Kill (ppm)
Experimental: as §1

tobacco budworm = assay: Topical application, tobacco budworm; type: in vivo, Heliothis virescens; settings: TBW
Experimental: as §2, §3

twospotted spider mite = assay: Foliar application, twospotted spider mite; type: in vivo; settings: Tetranychus urticae, TSM, foliar, 48 hours, read-out: Foliar % Kill (ppm)
Experimental: as §1

southern armyworm [6] = assay: Topical application, southern armyworm; type: in vivo, Spodoptera eridania; settings: SAW; for Topical % Kill @ 5000 ng/insect: 24 hours
Experimental: as §2, §3

boll weevil = assay: Topical application, boll weevil; type: in vivo, Anthonomus grandis; settings: BW
Experimental: as §2, §3

pea aphid = assay: Foliar application, pea aphid; type: in vivo; settings: Acyrthosiphon pisum, PA, foliar, 48 hours, read-out: Foliar % Kill (ppm)
Experimental: as §1

Mexican bean beetle [7] = assay: Topical application, Mexican bean beetle; type: in vivo, Epilachna varivestis; settings: MBB; for Topical % Kill @ 5000 ng/insect: 24 hours
Experimental: as §2, §3

beet armyworm = assay: Topical application, beet armyworm; type: in vivo, Spodoptera exigua; settings: BAW
Experimental: as §2, §3

milkweed bug [8] = assay: Foliar application, milkweed bug; type: in vivo; settings: Oncopeltus fasciatus, MWB, 48 hours, read-out: Foliar % Kill (ppm)

SMILES	mortality at 512 ppm (southern armyworm [1]) [%]	Topical LD50 (milkweed bug [2]) [ng/insect]	Topical % Kill @ 5000 ng/insect (milkweed bug [2]) [%]	Topical LD50 (cabbage looper [4]) [ng/insect]	mortality at 512 ppm (Mexican bean beetle [5]) [%]	Topical LD50 (tobacco budworm) [ng/insect]	Topical LD50 (southern armyworm [6]) [ng/insect]	Topical % Kill @ 5000 ng/insect (southern armyworm [6]) [%]	Topical LD50 (boll weevil) [ng/insect]	mortality at 512 ppm (pea aphid) [%]	Topical LD50 (Mexican bean beetle [7]) [ng/insect]	mortality at 512 ppm (twospotted spider mite) [%]	mortality at 500 ppm (twospotted spider mite) [%]	mortality at 500 ppm (pea aphid) [%]	Topical % Kill @ 5000 ng/insect (Mexican bean beetle [7]) [%]	other results
Cc1c(COC(=O)[C@H]2[C@@H](C=C(Cl)Cl)C2(C)C)cccc1-c1cccs1 (relative stereo) [g, [2-methyl-3-(2-thienyl)phenyl]methyl cis-3-(2,2-dichloroethenyl)-2,2-dimethylcyclopropanecarboxylate]	100	234	100	0.5	100	107	51	100	21	100	8	–	–	–	–	mortality at 80 ppm (cabbage looper [3]; 80 ppm): 100%; mortality at 64 ppm (twospotted spider mite; 64 ppm): 0%
Cc1c(COC(=O)[C@H]2[C@H](C=C(Cl)Cl)C2(C)C)cccc1-c1cccs1 (relative stereo) [f, [2-methyl-3-(2-thienyl)phenyl]methyl trans-3-(2,2-dichloroethenyl)-2,2-dimethylcyclopropanecarboxylate]	100	238	100	–	100	–	155	–	–	100	–	71	–	–	–	mortality at 120 ppm (cabbage looper [3]; 120 ppm): 100%
Cc1c(COC(=O)[C@H]2[C@@H](C=C(Br)Br)C2(C)C)cccc1-c1cccs1 (relative stereo) [i, [2-methyl-3-(2-thienyl)phenyl]-methyl cis-3-(2,2-dibromoethenyl)-2,2-dimethylcyclopropanecarboxylate]	–	132	100	371	–	177	55	100	–	–	20	–	90	100	100	mortality at 16 ppm (southern armyworm [1]; 16 ppm): 95%; mortality at 32 ppm (cabbage looper [3]; 32 ppm): 70%; mortality at 32 ppm (Mexican bean beetle [5]; 32 ppm): 90%
Cc1c(COC(=O)[C@@H]2[C@H](C=C(Cl)Cl)C2(C)C)cccc1-c1cccs1 [h, [2-methyl-3-(2-thienyl)phenyl]-methyl 1R-cis-3-(2,2-dichloroethenyl)-2,2-dimethylcyclopropanecarboxylate]	–	64	100	136	–	38	22	–	–	–	9	–	100	100	100	mortality at 6.5 ppm (southern armyworm [1]; 6.5 ppm): 100%; mortality at 16 ppm (cabbage looper [3]; 16 ppm): 90%; mortality at 16 ppm (Mexican bean beetle [5]; 16 ppm): 95%
CC1(C)[C@H](C=C(Cl)Cl)[C@@H]1C(=O)OCc1cccc(-c2ccsc2)c1 (relative stereo) [d, 3-(3-thienyl)phenylmethyl cis-3-(2,2-dichloroethenyl)-2,2-dimethylcyclopropanecarboxylate]	–	1137	95	2408	–	–	57	100	–	–	73	–	100	100	100	Topical LD50 (beet armyworm): 3010 ng/insect
Cc1c(COC(=O)[C@H]2[C@@H](C=C(Cl)C(F)(F)F)C2(C)C)cccc1-c1cccs1 (relative stereo) [e, [2-methyl-3-(2-thienyl)phenyl]-methyl cis-3-(2-chloro-3,3,3-trifluoro-1-propenyl)-2,2-dimethylcyclopropanecarboxylate]	100	72	100	74	–	43	23	100	11	100	7	100	–	–	100	mortality at 24 ppm (cabbage looper [3]; 24 ppm): 95%; mortality at 512 ppm (milkweed bug [8]): 100%

Reference: patent US4426524A, “Heterocyclic substituted benzyl alcohol, insecticidal ester derivatives, and intermediates” (priority 1982, dated 1984)
